Results reported in patent US5869494A, “Uses for barbituric acid analogs” (priority 1997, dated 1999).
“Also recorded” adds a separate entry of the source.

Key:
[1] = tested on: human prostate tumors; test: Established human prostate tumors implanted in mice, intramuscular treatment; format: in vivo; details: 100 mg/kg intramuscular, alternate days, after 5 weeks
Description: Similar experiments were carried out where implanted human prostate tumors (2×2 mm) were allowed to become established. Eight days later, the tumor size was ≈5×5 mm. Treatment was initiated which consisted of intramuscular injections of C1 (100 mg/kg) given on alternate days. After 5 weeks of treatment, tumors were not detectable by palpation in 2 of 3 animals. […] Untreated control mice (n=3), had tumors at 5 weeks of average size of 10×9mm.

[2] = In vivo toxicity, single escalating oral dose; details: BALB/c mice
Description: A single escalating dose of the test drag is a procedure where a dose is administered to a group of mice (in this case n=3). If toxicity is not elicited, the next higher dose is given to a fresh group of mice and so on until toxicity is observed.

[3] = tested on: lung carcinoma (non-small cell); test: Human tumor cloning system, lung carcinoma (non-small cell); format: cell-based; details: responsive = at least 50% inhibition of tumor colony formation
Description: (§1) Through the initial work of Hamburger and Salmon (1977 a,b), it is possible to culture human tumors using a two-layer soft agar system. This culture system, called the human tumor cloning system, was initially utilized to select the most appropriate anticancer agent for an individual patient's tumor. […] In an in vitro-in vivo correlation study involving 800 patients retrospectively, it was determined that the true positive rate for this assay was 70%, while the true negative rate for the assay was 98% (Von Hoff et al., 1981). In a more recent prospective clinical trial of the cloning system involving 604 patients, the percent true positive for the assay was 64%, while the percent true negative for the assay was 86% (Von Hoff et al., 1983). […] This system was used to study the response of compound C1 for breast cancer and non-small cell lung carcinoma.
(§2) Collection and preparation of tumor cells: After obtaining informed consent in accordance with federal and institutional guidelines, malignant effusions, ascites and bone marrow aspirates containing tumor cells as well as solid tumor specimens were collected from patients undergoing procedure carried out as a part of their diagnostic workup or as part of treatment for their disease. […] The viability of cell suspensions thus obtained was determined with trypan blue.
(§3) Tumor cells to be cloned were suspended in 0.3% agar in enriched CMRL 1066 medium (Gibco, Grand Island, N.Y.) supplemented with 15% heat-inactivated horse serum, penicillin (100 units/ml), streptomycin (2 mg/ml) glutamine (2 mM), insulin (3 units/ml), asparagine (0.6 mg/ml), and HEPES buffer (2 mM). […] After an incubation period of 14 days, plates were removed and the number of colonies were counted in each plate. The number of colonies (defined as >50 cells) formed were compared in drug treated and untreated (control) plates and the percent colonies surviving at each drug dose tested was then calculated as a percentage of control. […]

[4] = tested on: human breast cancer MCF-7 cells; test: Inhibition of clonogenic growth of breast cancer cells; format: cell-based; details: for No. of Colonies (Mean ± S.D.): control 158.5 ± 12.2
Description: After additional incubation periods of 24 h and 48 h, cells were washed to remove the drug and were allowed to grow at 37° C. in a CO2 incubator. After 10 days, colonies consisting of 50 or more cells were counted.

[5] = tested on: DU-145 human prostate tumors; test: Human DU-145 prostate tumors transplanted into athymic mice, oral treatment; format: in vivo, athymic BALB/c nude-nu mice; details: 400 mg/kg oral
Text: Male athymic BALB/c nude-nu mice (6-8 weeks old, 18-22 g each) were purchased from Harlan Sprague-Dawley, Inc. (Indianapolis, Ind.) and maintained in a germ-free environment. The mice had free access to sterile food and water. Human prostate DU-145 cells (1×10^7) were transplanted subcutaneously into athymic mice. Solid tumors appearing after 30 days were cut into small pieces (2-2 mm) and transplanted into native mice. […] The treatment schedule consisted of a single dose on alternate days. The control group of animals (3 mice) received vehicle only. […] At this point, the treatment was terminated and animals were kept under observation for the regrowth of prostate tumors.
formula % TGI = 100(1Vt /Vc), where Vt and Vc are the […]

[6] = tested on: human immunodeficiency virus (HIV-1); test: Inactivation of cell free HIV-1 (MT-4 indicator cells); format: cell-based; details: 2 h treatment, MT-4 + HIV-1, day 7
Description: After 2 h at 37° C., treated and control HIV-1 samples were added to the indicator MT-4 cells (cultured human T cells) in the presence of 2 μg/ml POLYBRENE™ for 2 h. After washing, MT-4 cells were cultured in the presence of drug-treated or control (untreated) HIV-1. Cell viability of MT-4 cells was determined by the trypan blue dye exclusion method.

[7] = In vivo toxicity, repeat oral dose; parameters: species or system BALB/c mice; details: for mortality: group of three mice
Description: In preliminary repeat dose studies, a suspension of C1 in polyethylene glycol (C1 is mixed with a 2.5% solution of polyethylene glycol and homogenized in a sterile dounce homogenizer until it flows freely through a 22×11/2" with 11/4 mm ball feeding needle) was administered orally to a group of three BALB/c mice.

[8] = tested on: breast tumor; test: Human tumor cloning system, breast tumors; format: cell-based; details: responsive = at least 50% inhibition of tumor colony formation
Description: as §1, §2, §3

SMILES: CCCCN1C(=O)CC(=O)N(CCCC)C1=S [Compound C1, 4,6(1H, 5H)-pyrimidinedione, 1,3-dibutyldihydro-2-thioxo]
- tumors not detectable by palpation [1]: 2 of 3
- lethal single dose [2]: 2000 mg/kg
- MTD ([2]; mouse, in vivo, read-out: single dose easily tolerated): ≥ 1200 mg/kg
- # responsive tumors/total # evaluated ([3]; 75 μg/ml): 0/1
- # responsive tumors/total # evaluated ([3]; 100 μg/ml): 1/1
- # responsive tumors/total # evaluated ([3]; 125 μg/ml): 1/1
- No. of Colonies (Mean ± S.D.) ([4]; 20 μg/ml, 24 hr): 24.5 ± 7.8
- No. of Colonies (Mean ± S.D.) ([4]; 20 μg/ml, 48 hr): 24.5 ± 6.1
- No. of Colonies (Mean ± S.D.) ([4]; 40 μg/ml, 24 hr): 13.5 ± 5.1
- No. of Colonies (Mean ± S.D.) ([4]; 40 μg/ml, 48 hr): 11.7 ± 1.2
- No. of Colonies (Mean ± S.D.) ([4]; 80 μg/ml, 24 hr): 3.0 ± 2.2
- No. of Colonies (Mean ± S.D.) ([4]; 80 μg/ml, 48 hr): 0 ± 0
- inhibition at 20 µg/mL ([4]; Homo sapiens, MCF7, 20 μg/ml, read-out: Percent Reduction (of colonies)): 84.5%
- inhibition at 40 µg/mL ([4]; Homo sapiens, MCF7, 40 μg/ml, read-out: Percent Reduction (of colonies)): 92.6%
- inhibition at 80 µg/mL ([4]; Homo sapiens, MCF7, 80 μg/ml, read-out: Percent Reduction (of colonies)): 100%
- tumor cell clonogenic growth ([4]; under the conditions employed): virtually complete elimination of tumor cell clonogenic growth
- regrowth of tumors ([5]; 5 months posttreatment): no signs of tumor regrowth; also recorded: regrowth of treated tumors did not occur for a period of 5 months
- palpable prostate tumors ([5]; after 18 doses): palpable prostate tumors in the treated group could not be detected; also recorded: palpable tumors were not detectable in treated animals
- % TGI (percent tumor growth inhibition) ([5]; alternate days, 18 doses): 99.0%
- side effects such as weight loss, diarrhea, lethargy or discomfort ([5]; alternate days, 18 doses): not observed; also recorded: No observable side effects
- Tumor Area ([5]; alternate days, 18 doses, control 19.90 ± 7.1): 0.0 cm^2
- Tumor Volume ([5]; alternate days, 18 doses, control 20.64 ± 7.01): 0.0 cm^3
- Animal Weight ([5]; alternate days, 18 doses, control 28.5): 29.3 g
- % Inactivation Day 7 ([6]; 125 μg/ml): 62%
- killing at 75 µg/mL ([6]; Human immunodeficiency virus 1, 168 h, 75 μg/ml): 7.7%
- killing at 100 µg/mL ([6]; Human immunodeficiency virus 1, 168 h, 100 μg/ml): 34.1%
- killing at 125 µg/mL ([6]; Human immunodeficiency virus 1, 168 h, 125 μg/ml): 62.6%
- tolerability and survival ([7]; 400 mg/kg daily oral, 10 days): easily tolerated and all animals survived the treatment
- mortality ([7]; 800 mg/kg daily oral): one animal died on day three and another died on day 10
- mortality ([7]; 1000 mg/kg daily oral): one animal died on day 2, another on day 5 and a third animal died on day 10
- mortality ([7]; 1200 mg/kg daily oral): all animals died on day 3
- # responsive tumors/total # evaluated ([8]; 75 μg/ml): 3/8
- # responsive tumors/total # evaluated ([8]; 100 μg/ml): 4/8
- # responsive tumors/total # evaluated ([8]; 125 μg/ml): 6/8
